# Assay results taken from EP0818464B1, “Methylsulfomycin l, a process for its production and its use” (HOECHST AKTIENGESELLSCHAFT, priority 1996, dated 1998).
# How the values were obtained:
# Assay in all cases: MIC by agar dilution method
# Type in all cases: cell-based
# [1] = system: Ent faecalis durans 4931 H
# Source text: (§1) The minimum inhibitory concentration (MIC) against different test strains, determined by agar dilution method in the known manner, are given in Table 2.
# Ent. equinus (V^R,T^R) = conditions: Vancomycin resistant, Teicoplanin resistant
# Source text: as §1
# Ent. faecalis 4045H = system: Ent. faecalis 4045H
# Source text: as §1
# Ent. faecalis D-7F = system: Ent. faecalis D-7F
# Source text: as §1
# Ent. faecium D-65 = system: Ent. faecium D-65
# Source text: as §1
# [2] = system: Ent. faecium P-1 (V^R,T^R); conditions: Vancomycin resistant, Teicoplanin resistant
# Source text: as §1
# [3] = system: Ent. faecium P-2 (V^R,T^R); conditions: Vancomycin resistant, Teicoplanin resistant
# Source text: as §1
# [4] = system: Ent. faecium R-1 (V^R,T^R); conditions: Vancomycin resistant, Teicoplanin resistant
# Source text: as §1
# [5] = system: Ent. faecium R-2 (V^R,T^R); conditions: Vancomycin resistant, Teicoplanin resistant
# Source text: as §1
# Ent. hirae 55 = system: Ent. hirae 55
# Source text: as §1
# [6] = system: Enterococcus faecalis ATCC 29212
# Source text: as §1
# Escherichia coli 2231 = system: Escherichia coli 2231
# Source text: as §1
# S. aureus 20240 = system: S. aureus 20240
# Source text: as §1
# S. aureus 20424 = system: S. aureus 20424
# Source text: as §1
# S. aureus 3066 = S. aureus 3066 (resistant to methicillin)
# Source text: as §1
# S. aureus Brussels 4115 = system: S. aureus Brussels 4115
# Source text: as §1
# S. aureus Brussels 810 = system: S. aureus Brussels 810
# Source text: as §1
# S. aureus Chantot 31153 = system: S. aureus Chantot 31153
# Source text: as §1
# S. aureus E 710 = system: S. aureus E 710
# Source text: as §1
# S. aureus E 712 = system: S. aureus E 712
# Source text: as §1
# S. aureus E-88 = system: S. aureus E-88
# Source text: as §1
# S. aureus Wein 11 = system: S. aureus Wein 11
# Source text: as §1
# S. aureus Wein 12 = system: S. aureus Wein 12
# Source text: as §1
# S. epi 6026 = system: S. epi 6026
# Source text: as §1
# S. epi. 109 = system: S. epi. 109
# Source text: as §1
# S. epi. 32965 = system: S. epi. 32965
# Source text: as §1
# S. epi. 5747 IIW = system: S. epi. 5747 IIW
# Source text: as §1
# S. epi. 8 Schah = system: S. epi. 8 Schah
# Source text: as §1
# S. epi. 823 (T^R) = conditions: Teicoplanin resistant
# Source text: as §1
# S. epi. 825 (T^S) = conditions: Teicoplanin sensitive
# Source text: as §1
# S. haemo. 712 (T^R) = conditions: Teicoplanin resistant
# Source text: as §1
# S. haemo. 712 (T^S) = conditions: Teicoplanin sensitive
# Source text: as §1
# [7] = system: Staphylococcus aureus 209P
# Source text: as §1
substance,measurement,setting,value
methylsulfomycin I,MIC,[1],0.125 mg/L
same,MIC,"Ent. equinus (V^R,T^R)",0.125 mg/L
same,MIC,Ent. faecalis 4045H,0.125 mg/L
same,MIC,Ent. faecalis D-7F,0.125 mg/L
same,MIC,Ent. faecium D-65,0.125 mg/L
same,MIC,[2],0.125 mg/L
same,MIC,[3],0.125 mg/L
same,MIC,[4],0.125 mg/L
same,MIC,[5],0.125 mg/L
same,MIC,Ent. hirae 55,0.125 mg/L
same,MIC,[6],0.125 mg/L
same,MIC,Escherichia coli 2231,> 100 mg/L
same,MIC,S. aureus 20240,0.125 mg/L
same,MIC,S. aureus 20424,0.125 mg/L
same,MIC,S. aureus 3066,0.125 mg/L
same,MIC,S. aureus Brussels 4115,0.125 mg/L
same,MIC,S. aureus Brussels 810,0.125 mg/L
same,MIC,S. aureus Chantot 31153,0.125 mg/L
same,MIC,S. aureus E 710,0.125 mg/L
same,MIC,S. aureus E 712,0.125 mg/L
same,MIC,S. aureus E-88,0.125 mg/L
same,MIC,S. aureus Wein 11,0.125 mg/L
same,MIC,S. aureus Wein 12,0.125 mg/L
same,MIC,S. epi 6026,0.125 mg/L
same,MIC,S. epi. 109,0.125 mg/L
same,MIC,S. epi. 32965,0.125 mg/L
same,MIC,S. epi. 5747 IIW,0.125 mg/L
same,MIC,S. epi. 8 Schah,0.125 mg/L
same,MIC,S. epi. 823 (T^R),0.125 mg/L
same,MIC,S. epi. 825 (T^S),0.125 mg/L
same,MIC,S. haemo. 712 (T^R),0.125 mg/L
same,MIC,S. haemo. 712 (T^S),0.125 mg/L
same,MIC,[7],0.06 mg/L
